Residues, ends and D or L forms follow the SMILES beside them. *: point of attachment. Cbz = O=C(OCc1ccccc1)*
Tests used:
[1] = system: MCF7 cell lysates; assay: Zfration and degradation of proteins in MCF7 cell lysates; type: biochemical, human
Experimental: (§1) Aliquots of Zfra-deficient breast MCF7 cell lysates (100 μg) were incubated with Zfra (100 μM) for various durations in the presence or absence of proteasome inhibitor MG-132 (50 μM). Zfra formed complexes with cytosolic proteins (or zfrated; see arrows), and disappeared with time even in the presence of MG-132. (B and C) Zfra-negative prostate DU145 cells were exposed to UV (160-720 mJ/cm^2), and aliquots of whole cell lysates (100 μg) were incubated with Zfra peptide (100 μM) for various durations (in PBS) at 37° C., in the presence of a cocktail of protease inhibitors (1:10 dilution). Zfrated proteins (70, 72, 200 kDa and minor band ladders) and exogenous Zfra peptide were degraded with time (>99% in 120 minutes; reducing SDS-PAGE). Synthetic Zfra was in PBS at the first lane at the left, and in Milli-Q water at the last lane at the right. Zfra-free control lysates had only less than 10% degradation of total proteins after incubation for 120 minutes, in the presence of protease inhibitors (data not shown). In the diagram of FIG. 6C, at each time points, the left bar is cell lysates, and the right bar is Zfra peptide. (D) L929 cell lysates (100 μg) were incubated with Zfra peptide (100 μM) for 30 minutes at 37° C. (in PBS). A 30-kDa protein was zfrated in 30 minutes, and 22- and 80-kDa protein was zfrated rapidly and then degraded in 30 minutes (reducing SDS-PAGE). *A nonspecific immunoreactive or a zfrated protein in L929 cells. (E) Zfra peptide (100 μM) bound recombinant His-Tau (2 μg protein) in PBS for 24 hours at room temperature, and the resulting complex resisted dissociation by reducing SDS-PAGE. Abbreviation: Zfra, zinc finger-like protein that regulates apoptosis.
To continue to investigate how Zfra reduces protein aggregation in vivo, we examined whether Zfra interacts with cytosolic proteins and accelerates protein degradation. Zfra peptide at high concentrations may undergo self-polymerization especially in PBS. […] Zfra-deficient human breast MCF7 cells were used. […]

[2] = system: L929 cell lysates; assay: Zfration and degradation of proteins in L929 cell lysates; type: biochemical, murine
Experimental: as §1, with “A 30-kDa protein was zfrated in 30 minutes, and 22- and 80-kDa protein was zfrated rapidly and then degraded in 30 minutes (reducing SDS-PAGE). *A nonspecific immunoreactive or a zfrated protein in L929 cells. (E) Zfra peptide (100 μM) bound recombinant His-Tau (2 μg protein) in PBS for 24 hours at room temperature, and the resulting complex resisted dissociation by reducing SDS-PAGE. Abbreviation: Zfra, zinc finger-like protein that regulates apoptosis.” left out

[3] = system: pyramidal neurons in the hippocampi; assay: Melanoma B16F10-induced neurodegeneration in nude mice; type: in vivo, mouse; conditions: nude mice, B16F10; data not shown
Experimental: FIG. 4 includes photos showing that Zfra suppresses melanoma B16F10-mediated neurodegeneration in the hippocampus. Nude mice were preinjected with 100 μL, of sterile Milli-Q water or Zfra4-10 (1 mM in sterile water) in 3 consecutive weeks. After treatment for a week, these mice were inoculated with melanoma B16F10 cells on both flanks (2×10^5 cells in 100-μL, PBS). Mice were sacrificed when the tumor sizes grew up to 2000-3000 mm^3 in about a month. (A) Zfra blocked neurodegeneration in the hippocampus (top panel) and prevented the formation of TPC6AΔ plaques in the cortex (bottom panel), which negatively correlates with pS14-WWOX expression. Note the presence of condensed apoptotic nuclei in the hippocampal neurons in the control mice, (B) Metastasis of B16F10 cells to the lung was blocked in Zfra-treated mice. Compared to controls, Zfra suppressed p-S14WWOX expression in the lung by ˜72% suppression (three sections). […] (C and D) The non-spatial learning and memory were determined by novel object recognition task for both 3×Tg and Wwox+/− mice. […]
Six- to eight-week-old male nude (BALB/cAnN.Cg-Foxn1^nu/CrlNarl) mice (National Laboratory Animal Center, Taiwan) were used. […] Tumor volumes were measured daily and calculated using the equation, D×(d)^2/2, where D and d are the major and minor diameters, respectively. […] Z-cell distribution in organs was determined under fluorescence microscopy.

[4] = Self-polymerization of Zfra peptide in PBS (reducing SDS-PAGE); type: physicochemical; conditions: >1 mM in PBS; molecular sizes from 3.5 kDa up to 78 and 80 kDa
[5] = biological target: T1, Aβ42 (Homo sapiens, UniProt P05067); assay: Aβ42 aggregation in vitro (SDS-PAGE); type: biochemical; conditions: 100 μM each peptide, room temperature, 24 hours or less
T1 construct: purchased AnaSpec
Description: FIG. 5 includes photos and diagrams showing that Zfra suppresses polymerization or aggregation of serine-containing TPC6AΔ and other peptides in PBS. […] The mixtures were subjected to nonreducing sodium dodecyl sulfate polyacrylamide gel electrophoresis (SDS-PAGE). (A) Full-length Zfra or red-fluorescent TMR-Zfra blocked aggregation of Aβ42 (lanes 3, 5, and 7). […] The membrane was stained with antibody against Aβ. (B) Zfra4-10 and one of the TPC6AΔ peptides were resuspended in Milli-Q water or PBS and incubated for 24 hours at room temperature. Zfra4-10 suppressed the polymerization of serine-containing peptides. Reduction in intensity=[1−(Z.P)/(Z+P)]×100%, where Z=Zfra4-10, P=an indicated peptide, and Z.P=peptide mixture. […] Zfra4-10 suppressed polymerization of these peptides in PBS.
Zfra and serine-containing peptides were synthesized by Genemed Synthesis (San Antonio, Tex., USA), (1) Zfra1-31, […] (SEQ ID NO: 2); (2) Zfra4-10, RRSSSCK (SEQ ID NO: 1); (3) WWOX7-21, AGLDDTDSEDELPPG (SEQ ID NO: 3); (4) pS14-WWOX7-21, AGLDDTDpSEDELPPG (SEQ ID NO: 4); (5). […]

T1 sequence (P05067 672-713): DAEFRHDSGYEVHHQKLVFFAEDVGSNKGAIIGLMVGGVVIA

CC(C)C[C@@H](C=O)NC(=O)[C@H](CC(C)C)NC(=O)[C@H](CC(C)C)NC(=O)OCc1ccccc1 [MG-132, reference compound] (Cbz-Leu-Leu-Leu-aldehyde)
effect of proteasome inhibitor on degradation of zfrated proteins ([1]; MCF7 lysates with Zfra, MG-132 50 μM): did not block but enhanced

MSSRRSSSCKYCEQDFRAHTQKNAAFPFLAN (MSSRRSSSCKYCEQDFRAHTQKNAATPFLAN; Synthesized pepetide) [Zfra1-31, full-length 31-amino-acid zinc finger-like protein that regulates apoptosis]
zfration and degradation of 80 and 22 kDa proteins ([2]; 37° C., PBS): rapidly zfrated and then degraded in 30 minutes
zfration of 30-kDa protein ([2]; 30 minutes): became zfrated
results in similar experiments (melanoma-induced neurodegeneration, metastasis, pS14-WWOX) [3]: Comparable results
self-polymerization [4]: underwent self-polymerization
aggregation of Aβ42 [5]: blocked
degradation of zfrated proteins ([1]; MCF7 lysates, with or without MG-132): degraded with time of incubation
binding of cellular proteins (zfration) ([1]; MCF7 lysates, complexes resisted SDS and β-mercaptoethanol): Zfra-bound cellular proteins

Reference: patent US10344065B2, “Method for treating Alzheimer's disease and method for downregulating protein aggregation in brain” (National Cheng Kung University, priority 2017, dated 2019)
